Measurements reported in patent publication US4604397A, “Certain benzo-(pyrano and thiopyrano)-pyridines, useful as CNS agents” (Ciba-Geigy Corporation, priority 1985, dated 1986).
pIC50: −log10 of the molar value. Structures can show the parent of a compound that is named as a salt.

Legend:
dopamine autoreceptor = assay: rat gamma-butyrolactone (GBL) model, inhibition of GBL-induced DOPA accumulation (presynaptic dopamine agonist activity); type: in vivo
Description: Indicative of potential neuroleptic activity of the compounds of the invention, the in-vivo presynaptic dopamine agonist activity (also called dopamine autoreceptor agonist activity) is determined in the rat gamma-butyrolactone (GBL) model by a modification of the procedure described by Walters and Roth, Naunyn Schmiedeberg's Arch. Pharmacol. 296, 5 (1976). In this model, a presynaptic dopamine agonist inhibits the GBL-induced accumulation of the dopamine precursor DOPA after pretreatment with 3-hydroxybenzylhydrazine (NSD-1015), a DOPA decarboxylase inhibitor.
Test compounds are dissolved in 0.9% saline, with sodium metabisulfite to prevent oxidation, if required. […] Dihydroxyphenylalanine (DOPA) is analyzed by High Pressure Liquid Chromatography/Electrochemistry (HPLC/EC) techniques using a Bio-analytical Systems (BAS) Model LC-150 series Liquid Chromatograph. […] Compounds are detected with an electro-chemical detector having an oxidizing potential of 0.7 volts and sensitivity setting of 20 nAmps/V. Tissue concentrations and recoveries are calculated by using the internal standard dihydroxybenzylamine (DHBA). […] Data is statistically analysed by one-way Analysis of Variance with Duncan's Multiple Comparison Test. The activity of the test compounds is determined as the percent inhibition of DOPA accumulation at a given dose. […]

[1] = system: reserpine-induced hypomotility in the rat; assay: reversal of reserpine-induced hypomotility in the rat; type: in vivo; conditions: ip
Text: In vivo such selectivity can be determined by measurement of the degree of reversal of reserpine induced hypomotility in the rat. The relative absence of such reversal at effective doses (e.g. in the GBL model) is indicative of selective presynaptic dopamine agonist activity.

[2] = biological target: presynaptic dopamine receptor; assay: dopamine binding assay in vitro: displacement of 3H-ADTN from calf-caudate nucleus membranes; parameters: species or system calf (bovine); conditions: 0.2 nM 3H-ADTN, 60 minutes at 25° C.
Description: The presynaptic dopamine receptor binding properties indicative of the presynaptic dopamine receptor regulatory, e.g. agonistic activity, of the compounds of the invention are determined in the dopamine binding assay in vitro by the following method involving the displacement of the dopamine agonist 2-amino-6,7-dihydroxy-1,2,3,4-tetrahydronaphthalene (^3 H-ADTN) from membranes from calf-caudate nucleus. [Eur. J. Pharmacol. 55, 137 (1979)].
Bovine brain tissue is homogenized in 50 volumes (based on original tissue weight) of 50 mM Tris-HCl buffer, pH 7.7 at 25° C., using a Brinkman Polytron, setting 6 for 20 seconds. The homogenate is centrifuged at 50,000×g for 10 minutes. The pellet is resuspended in 50 volumes of 50 mM Tris-HCl buffer, pH 7.7 and recentrifuged. The final pellet is resuspended in 200 volumes of incubation media containing: 50 mM Tris-HCl buffer, pH 7.7; 0.1% ascorbic acid; 0.001 mM pargyline; 120 mM NaCl; 5 mM KCl, 2 mM CaCl2 and 1 mM MgCl2.
In the binding assay, triplicate 2 ml samples (equivalent to 5 mg/ml original tissue) of the membrane suspension are incubated for 60 minutes at 25° C. with 0.2 nM ^3 H-ADTN without or in the presence of various concentrations of test compound in solvent. The reaction is terminated by filtering with 5 ml of cold 50 mM Tris-HCl buffer pH 7.7. The filters are placed in scintillation vials with 5 ml of scintillation solution, disrupted by vigorous mechanical shaking for 90 minutes, and counted for radioactivity.
The IC50 values represent the concentration of test compounds required to inhibit the specific binding of 0.2 nM ^3 H-ADTN by 50%, and are determined graphically.

serotonin receptor [3] = biological target: T1, serotonin receptor (Bos taurus, UniProt F1MGM3); assay: 3H-serotonin binding assay in vitro, calf brain (caudate nuclei) membranes; conditions: 7 nM 3H-serotonin, 10 minutes at 37° C.
T1 construct: Caudate nuclei are dissected from freshly obtained calf brains; from tissue; host or cells: calf brain caudate nuclei membranes
Description: The serotonin binding properties indicative of serotonin agonistic receptor regulating activity of compounds of the invention are determined in the in vitro binding assay as follows:
Membrane suspensions are prepared from calf brain and incubated with ^3 H-serotonin by a modification of the procedure described by Bennett and Snyder. Caudate nuclei are dissected from freshly obtained calf brains; they are frozen and stored at -70° C. for up to 3 months. For each binding experiment, a portion of tissue is homogenized with a Brinkmann Polytron in 50 volumes (w/v) of ice-cold 50 mM Tris-HCl (pH 7.7 at 25° C.) containing 10 mM dithiothreitol. The homogenate is centrifuged twice at 50,000×g for 10 minutes with rehomogenization of the pellet in fresh buffer between spins. The final pellet is homogenized in 100 volumes (based on original tissue weight) cold 50 mM Tris-HCl (pH 7.6 at 25° C.) containing […] pargyline, 0.1% ascorbic acid, 120 mM NaCl, 5 mM KCl, 2 mM CaCl2, 1 mM MgCl2 and 10 mM dithiothreitol. The suspension is warmed in a 37° C. bath for 10 minutes and then returned to ice.
In the binding assay, 2-ml aliquots of the final tissue suspension (equivalent to 20 mg of original wet tissue) are added to tubes (on ice) containing ^3 H-serotonin with or without test compound freshly dissolved in 0.1% ascorbic acid. The final concentration of ^3 H-serotonin is 7 nM. Test compounds are present over a wide range of concentrations, with triplicate tubes for each concentration. Tubes are incubated at 37° C. for 10 minutes and the suspensions are immediately filtered under vacuum through Whatman GF/B glass fiber filters. The filters are washed with 10 ml of cold Tris-HCl (pH 7.7 at 25° C.), placed in scintillation vials with 12 ml of scintillation solution, disrupted by vigorous mechanical shaking for 90 minutes and counted for radioactivity. The IC50 values (concentrations of test compounds required to inhibit the specific binding of 7 nM ^3 H-serotonin by 50%) are determined graphically.

serotonin receptor [4] = assay: serotonin receptor agonist activity in vivo: decrease in accumulation of 5-hydroxytryptophane in rat brain
Description: The serotonin receptor agonist activity is determined in vivo by measuring the decrease in the accumulation of 5-hydroxytryptophane in the brain after administration of a test compound in the rat, as described in J. Med. Chem. 21, 864 (1978).

T1 sequence (F1MGM3 1-403): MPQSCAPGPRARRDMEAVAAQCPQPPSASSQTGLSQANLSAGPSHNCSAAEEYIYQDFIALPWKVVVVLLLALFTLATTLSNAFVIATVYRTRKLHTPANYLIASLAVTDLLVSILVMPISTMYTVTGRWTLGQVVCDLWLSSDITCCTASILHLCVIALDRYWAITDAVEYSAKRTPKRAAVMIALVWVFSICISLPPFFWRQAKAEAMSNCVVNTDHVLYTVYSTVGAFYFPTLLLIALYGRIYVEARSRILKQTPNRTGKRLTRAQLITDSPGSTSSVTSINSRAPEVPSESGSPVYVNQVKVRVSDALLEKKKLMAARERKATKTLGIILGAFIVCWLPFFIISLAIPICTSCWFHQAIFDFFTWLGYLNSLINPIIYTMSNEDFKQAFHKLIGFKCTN

| Structure (SMILES) | pIC50 [2] | pIC50 (serotonin receptor [3]) | further results |
| --- | --- | --- | --- |
| CCCN1CCC[C@@H]2c3cc(O)ccc3OC[C@H]21.Cl (relative stereo) [trans-9-hydroxy-4-propyl-1,2,3,4a,5,10b-hexahydro-4H-[1]-benzopyrano[3,4-b]pyridine hydrochloride] | ~7.52 | – | ED50 (dopamine autoreceptor; ip, read-out: ED50 in the GBL model (dose at which DOPA accumulation is inhibited by 50%)): ~0.16 mg/kg; activity in the GBL model orally (dopamine autoreceptor; oral, dose of about 0.5 mg/kg): active; ED50 [1]: ~10 mg/kg |
| COc1c(Br)ccc2c1OC[C@@H]1[C@@H]2CCCN1C.Cl (relative stereo) [trans-8-bromo-7-methoxy-4-methyl-1,2,3,4a,5,10b-hexahydro-4H-[1]-benzopyrano[3,4-b]pyridine hydrochloride] | – | ~7.70 | decrease of accumulation of 5-hydroxytryptophane in the frontoparietal cortex of rat brain (serotonin receptor [4]; 2.5 mg/kg s.c.): about 25% |
| COc1cccc2c1OC[C@@H]1[C@@H]2CCCN1C (relative stereo) [trans-7-methoxy-4-methyl-1,2,3,4a,5,10b-hexahydro-4H-[1]-benzopyrano[3,4-b]pyridine hydrochloride] | – | ~7.10 | – |
| CCCN1CCC[C@@H]2c3c(OC)cccc3OC[C@H]21 (relative stereo) [trans-10-methoxy-4-propyl-1,2,3,4a,5,10b-hexahydro-4H-[1]-benzopyrano[3,4-b]pyridine hydrochloride] | – | ~7.70 | – |
| CCCCN1CCC[C@@H]2c3cccc(O)c3OC[C@H]21 (relative stereo) [trans-4-butyl-7-hydroxy-1,2,3,4a,5,10b-hexahydro-4H-[1]-benzopyran-[3,4-b]pyridine hydrochloride] | ~7.70 | – | – |
| CCCN1CCC[C@@H]2c3cccc(O)c3OC[C@H]21 (relative stereo) [trans-7-hydroxy-4-propyl-1,2,3,4a,5,10b-hexahydro-4H-[1]-benzopyrano[3,4-b]pyridine hydrochloride] | ~7.22 | – | – |
| Cc1ccc2c(c1O)OC[C@@H]1[C@@H]2CCCN1C.Cl (relative stereo) [trans-7-hydroxy-4,8-dimethyl-1,2,3,4a,5,10b-hexahydro-4H-[1]-benzopyrano[3,4-b]pyridine hydrochloride] | – | – | decrease of accumulation of 5-hydroxytryptophane in the frontoparietal cortex of rat brain (in words) (serotonin receptor [4]; dose of 0.1 mg/Kg, compared with about 25% decrease of the 8-bromo-7-methoxy-4-methyl compound): similarly effective |
| CN1CCC[C@@H]2c3c(O)cccc3OC[C@H]21 (relative stereo) [trans-10-hydroxy-4-methyl-1,2,3,4a,5,10b-hexahydro-4H-[1]-benzopyrano[3,4-b]pyridine hydrochloride] | – | ~6.40 | – |
| CCCN1CCC=C2c3cc(O)ccc3SCC21 (stereo not shown) [9-hydroxy-4-propyl-2,3,4a,5-tetrahydro-4H-[1]-benzothiopyrano[3,4-b]pyridine hydrochloride] | ~8.00 | – | – |
